These results are taken from patent publication US11446309B2, “Combination therapy for cancer using bromodomain and extra-terminal (BET) protein inhibitors” (Dana-Farber Cancer Institute, Inc., priority 2013, dated 2022).

This experiment has as its system H2122 human lung cancer line, m855 mouse GEM line, diffuse large B-cell lymphoma and Burkitt's lymphoma cell lines. The experiment can be described thus: Combination with JQ1, cell viability isobolograms (cell line not stated for the result). It counts as cell-based. Conditions: for Effect on JQ1 activity at doses where the agent alone has no effect: in combination with JQ1, doses where they alone have no effect. The procedure:
Compounds were profiled against H2122 human lung cancer line and m855 mouse GEM line containing p53/kRas mutations. Compounds were also profiled against diffuse large B-cell lymphoma cell lines OCI-Ly1, OCI-Ly3, OCI-Ly4, OCI-Ly7, S-DHL4, SU-DHL6, SU-DHL7, HBL1, K422, U2932 and Toledo, and against Burkitt's lymphoma cell lines Raji and Ca46.
Using a Biotek EL406, 50 uL of cell media containing 20-60,000 cells/ml was distributed into white 384-well Nunc plates (Thermo). Suspension cells then received compound immediately while adherent cells lines were given one hour to reattach to the surface of the plate prior to compound addition. The compounds to be tested were dissolved in DMSO and arrayed on 384 well compound storage plates (Greiner). Each compound plate received one compound in 5 point dose response approximately centered on the IC50 of the given compound for a given cell line.
After addition of compound, cell plates were incubated for 72 hr in a […] incubator. Cell viability was evaluated using ATPlite (Perkin Elmer) following manufacturer protocols. Data was analyzed in CalcuSyn utilizing the median effect principle of presented by Chou-Talalay and visualized using GraphPad Prism Software. Key parameters assessed were combination index and dose reduction index.
Points below the 1 to 1 line connecting the X and Y axes are ‘synergistic’, points near the line are ‘additive’, and points above it are antagonistic.

Structures are written as SMILES.

Take `Cn1c(=O)n(-c2ccc(C(C)(C)C#N)cc2)c2c3cc(-c4cnc5ccccc5c4)ccc3ncc21` [BEZ235]: the “Type of response when administered in combination with JQ1 (isobologram)” value (shortened to “Type of response … (isobologram)”) is given as “additive effects” and the “Effect on JQ1 activity at doses where the agent alone has no effect” value is given as “increased the effect of JQ1”.

With `NC1(c2ccc(-c3nc4ccn5c(=O)[nH]nc5c4cc3-c3ccccc3)cc2)CCC1` [MK2206], the “Type of response … (isobologram)” value is recorded as “synergistic response”.

In the case of `C[C@@H](Oc1cc(-c2cnn(C3CCNCC3)c2)cnc1N)c1c(Cl)ccc(F)c1Cl` [crizotinib], the “Type of response … (isobologram)” value is “synergistic response”.

For the molecule `COc1cc([C@@H]2c3cc4c(cc3[C@@H](O[C@@H]3O[C@@H]5CO[C@@H](C)O[C@H]5[C@H](O)[C@H]3O)[C@H]3COC(=O)[C@H]23)OCO4)cc(OC)c1O` [etoposide], the “Type of response … (isobologram)” value was “synergistic response”.

Consider `CO[C@H]1C[C@@H]2CC[C@@H](C)[C@@](O)(O2)C(=O)C(=O)N2CCCC[C@H]2C(=O)O[C@H]([C@H](C)C[C@@H]2CC[C@@H](OC(=O)C(C)(CO)CO)[C@H](OC)C2)CC(=O)[C@H](C)/C=C(\C)[C@@H](O)[C@@H](OC)C(=O)[C@H](C)C[C@H](C)/C=C/C=C/C=C/1C` [temsirolimus], for which the “Type of response … (isobologram)” value is listed as “additive effects” and the “Effect on JQ1 activity at doses where the agent alone has no effect” value is given as “increased the effect of JQ1”.
